From patent publication US5776929A, “Benzodiazepine derivative” (Shionogi & Co., Ltd., priority 1993, dated 1998)

Assays:
CCK-A receptor = biological target: T1, CCK-A receptor (Mus musculus, UniProt O08786); assay: CCK-A receptor antagonism, displacement of [3H]CCK-8, pancreas crude membrane; format: binding, mouse (male ddY); conditions: mouse pancreas membrane, [3H]CCK-8 1 nM, 90 min, 25 °C; read-out: Receptor CCK-A (IC50)
T1 construct: crude membrane specimen from mouse pancreas; from tissue; host or cells: pancreas of male ddY mice, crude membranes
T1 sequence (O08786 1-436): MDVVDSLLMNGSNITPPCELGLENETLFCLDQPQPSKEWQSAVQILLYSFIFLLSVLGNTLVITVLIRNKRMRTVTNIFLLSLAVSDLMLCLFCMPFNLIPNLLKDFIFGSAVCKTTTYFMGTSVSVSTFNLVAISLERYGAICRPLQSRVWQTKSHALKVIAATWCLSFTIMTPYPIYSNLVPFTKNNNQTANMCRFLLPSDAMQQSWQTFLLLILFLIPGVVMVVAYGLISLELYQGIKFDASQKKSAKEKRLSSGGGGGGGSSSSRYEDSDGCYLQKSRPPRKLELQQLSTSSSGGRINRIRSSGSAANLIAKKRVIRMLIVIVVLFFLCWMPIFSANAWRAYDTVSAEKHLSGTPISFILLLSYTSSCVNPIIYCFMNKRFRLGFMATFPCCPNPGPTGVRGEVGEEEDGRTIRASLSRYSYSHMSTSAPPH
Method: (§1) Male Hartley guinea pig (450-600 g) or male ddY mouse (24-30 g) were used.
(§2) (2) CCK-A Receptor Antagonism and CCK-B Receptor Antagonism
(§3) Preparation of CCK receptor preparations
(§4) Male ddY mice (24 to 30 g) were killed by decapitation and cerebral cortex (CCK-B) and pancreas (CCK-A) were extracted immediately. Each of cerebral cortex and pancreas was mixed with 50 mM Tris-HCl buffer (pH 7.4) and homogenized with a teflon-glass homogenizer and polytron homogenizer to obtain crude membrane specimens.
(§5) Preparation of test compounds and procedures of displacing assay A 1M solution of a compound to be tested in DMSO is prepared and diluted with 50% DMSO to obtain a ten-fold dilution series.
(§6) The reaction is initiated by the addition of crude membrane specimen to solutions of different concentration each containing [^3 H]CCk-8 (final concentration, 1 nM). The mixture is incubated for 90 min at 25° C., filtered through glass filter with aspiration and washed with a cooled 50 mM Tris buffer. After the addition of Aquazol-2 cocktail the radioactivity is counted. The same procedure was repeated using 50% DMSO solution or Ceruletide (final concentration, 1 μM) instead of a solution of test compound so as to obtain the control value regarding total binding or the value regarding non-specific binding, respectively. […]
(§7) specific binding of control=total binding (cpm)-non-specific binding (cpm); and specific binding of test compound=[…]-non-specific binding (cpm).

CCK-B receptor = biological target: T2, CCK-B receptor (Mus musculus, UniProt P56481); assay: CCK-B receptor antagonism, displacement of [3H]CCK-8, cerebral cortex crude membrane; format: binding, mouse (male ddY); conditions: mouse cerebral cortex membrane, [3H]CCK-8 1 nM, 90 min, 25 °C; read-out: Receptor CCK-B (IC50)
T2 construct: crude membrane specimen from mouse cerebral cortex; from tissue; host or cells: cerebral cortex of male ddY mice, crude membranes
T2 sequence (P56481 1-453): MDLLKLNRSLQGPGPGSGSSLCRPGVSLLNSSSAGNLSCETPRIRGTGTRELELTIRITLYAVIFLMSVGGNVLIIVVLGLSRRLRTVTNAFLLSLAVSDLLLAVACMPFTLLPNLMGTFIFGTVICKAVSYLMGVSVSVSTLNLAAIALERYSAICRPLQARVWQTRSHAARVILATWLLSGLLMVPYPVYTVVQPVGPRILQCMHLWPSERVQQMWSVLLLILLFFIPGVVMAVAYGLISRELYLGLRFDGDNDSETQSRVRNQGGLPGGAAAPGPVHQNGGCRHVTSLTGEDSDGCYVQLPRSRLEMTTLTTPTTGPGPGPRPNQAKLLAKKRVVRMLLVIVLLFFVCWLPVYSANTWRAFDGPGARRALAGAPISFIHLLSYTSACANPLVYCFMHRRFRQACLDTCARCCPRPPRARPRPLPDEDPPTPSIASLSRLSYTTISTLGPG
Method: as §1, §2, §3, §4, §5, §6, §7

gastrin receptor = biological target: T3, gastrin receptor (Cavia porcellus, UniProt H0VZC5); assay: Gastrin receptor antagonism, displacement of 125I-labeled gastrin, gastric (fundic) gland cells; format: binding, guinea pig (male Hartley); conditions: guinea pig gastric glands, 125I-gastrin 0.2 nM, 30 min, 25 °C; read-out: Receptor Gastrin (IC50)
T3 construct: stomach was extracted from each animal immediately, from which gastric glands were prepared; from tissue; host or cells: gastric (fundic) glands of male Hartley guinea pigs
T3 sequence (H0VZC5 1-426): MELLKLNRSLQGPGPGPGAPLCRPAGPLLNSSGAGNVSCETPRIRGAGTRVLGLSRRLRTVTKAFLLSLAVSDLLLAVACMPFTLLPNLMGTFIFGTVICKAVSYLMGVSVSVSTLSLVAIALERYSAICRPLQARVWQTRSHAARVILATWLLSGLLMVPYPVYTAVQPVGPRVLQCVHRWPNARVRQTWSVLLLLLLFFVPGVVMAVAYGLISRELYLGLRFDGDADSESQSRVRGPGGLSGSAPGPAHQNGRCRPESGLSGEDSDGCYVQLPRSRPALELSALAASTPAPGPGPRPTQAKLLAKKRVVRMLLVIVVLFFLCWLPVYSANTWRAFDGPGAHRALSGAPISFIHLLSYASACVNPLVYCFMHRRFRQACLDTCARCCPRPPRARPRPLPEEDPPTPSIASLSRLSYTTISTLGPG
Method: as §1
(1) Gastrin Receptor Antagonism
Preparation of gastric glands:
Male Hartley guinea pigs (450-600 g) were killed by bleeding and stomach was extracted from each animal immediately, from which gastric glands were prepared.
Preparation of test compounds and procedures of displacing assay
A 1M solution of a compound to be tested in DMSO is prepared and diluted with 50% DMSO to obtain a ten-fold dilution series.
The mixture is incubated for 30 min at 25° C., centrifuged at 2000 rpm for 5 min and the supernatant is removed by aspiration. To the pellet is added ice-cooled incubation buffer and mixed gently, followed by an immediate centrifugation and removal of the supernatant by aspiration. The radioactivity is counted on gamma counter. The same procedure was repeated using 50% DMSO solution or human gastrin I (final concentration, 2 μM) instead of a solution of test compound so as to obtain the control value regarding total binding or the value regarding non-specific binding, respectively. […]
as §7

gastric acid secretion = assay: Inhibitory effect on gastric acid secretion by Schild method (pentagastrin-stimulated); format: in vivo, rat (male Sprague Dawley); conditions: intraduodenal, rat, read-out: Inhibitory Effect on acid secretion (Schild method), percent inhibition
Source text: Evaluation of Inhibitory Effect on Gastric Acid Secretion by Schild Method
Twenty four hour starved (ad libitum for water) male Sprague Dawley rats (8-week-old) were anesthetized with urethane (1.5 g/kg S.C.) and kept breathing with esophagus cannulas. After laparotomy, esophagus cannulas were inserted orally up to proventriculus and ligated around gastric cardiac. Perfusion cannulas were inserted from duodenum into stomach and ligated around pylorus. Another cannulas were placed into duodenum and ligated for administration of drug. After sutra of abdomen, stomach was perfused via the esophagus cannulas with physiological saline (37° C.) while collecting perfusate for a 15 min interval. The perfusate was subjected to titration with 0.001 N NaOH solution to determine the acidity. When the basal acid secretion became stable, pentagastrin ([…]) was administered in a sustained manner via common carotid vein for about 90 min until the acid secretion reached approximately the highest level, when a test compound (0.5% M.C. suspension) was administered into duodenum through cannulas. The perfusate was collected for a 15 min interval to monitor the acid secretion for 90 min. The percent inhibition was calculated as follows:
Percent inhibition (%)=100×(A-B)/(C-B)
A: the minimum value of total acidity observed after the administration of a test compound;
B: the total acidity obtained immediately before the administration of pentagastrin; and
C: the total acidity obtained immediately before the administration of a test compound.

Structure (SMILES) | IC50 (CCK-A receptor) [µM] | IC50 (CCK-B receptor) [µM] | IC50 (gastrin receptor) [µM] | inhibition in vivo at 0.3 mg/kg (gastric acid secretion) [%] | inhibition in vivo at 0.1 mg/kg (gastric acid secretion) [%]
Cc1cccc(NC(=O)NC2C(=O)N(CC(=O)N3CCCC3)c3ccccc3N(CC(=O)N3CCCC3)C2=O)c1 [Compound 8a] | 0.86 | 0.054 | 0.007 | 49 | 
Cc1cccc(NC(=O)NC2C(=O)N(CC(=O)c3ccccc3C)c3ccccc3N(CC(=O)c3ccccc3C)C2=O)c1 [Compound 8d, 1,5-Bis-(o-methylphenacyl)-3-{N'-(m-tolyl)-ureido}-1H-1,5-benzodiazepine-2,4(3H,5H)-dione] | 0.029 | 0.011 | 0.004 | 66 | 
Cc1cccc(NC(=O)NC2C(=O)N(CC(=O)c3ccco3)c3ccccc3N(CC(=O)c3ccco3)C2=O)c1 [Compound 8f, 1,5-Bis-(2-furylcarbonylmethyl)-3-{N'-(m-tolyl)-ureido}-1H-1,5-benzodiazepine-2,4(3H,5H)-dione] | 0.12 | 0.017 | 0.003 | 73 | 
Cc1cccc(NC(=O)NC2C(=O)N(CC(=O)C3CC3)c3ccccc3N(CC(=O)C3CC3)C2=O)c1 [Compound 8h, 1,5-Bis-(cyclopropylcarbonylmethyl)-3-(N'-(m-tolyl)ureido)-1H-1,5-benzodiazepine-2,4(3H,5H)-dione] | 0.38 | 0.018 | 0.005 | 81 | 
Cc1cccc(NC(=O)NC2C(=O)N(CC3CC3)c3ccccc3N(CC3CC3)C2=O)c1 [Compound 8o, 1,5-Bis-(cyclopropylmethyl)-3-{N'-(m-tolyl)-ureido}-1H-1,5-benzodiazepine-2,4(3H,5H)-dione] | 0.86 | 0.023 | 0.012 | 60 | 
Cc1cccc(NC(=O)NC2C(=O)N(Cc3cccc(N)c3)c3ccccc3N(Cc3cccc(N)c3)C2=O)c1 [Compound 8r] | 0.76 | 0.021 | 0.018 | 46 | 

Second part, led by results:

IC50 (CCK-A receptor) [µM] | IC50 (CCK-B receptor) [µM] | IC50 (gastrin receptor) [µM] | Structure (SMILES) | inhibition in vivo at 0.3 mg/kg (gastric acid secretion) [%] | inhibition in vivo at 0.1 mg/kg (gastric acid secretion) [%]
1.35 | 0.14 | 0.007 | CCOC(=O)c1cccc(NC(=O)NC2C(=O)N(CC(=O)C3CC3)c3ccccc3N(CC(=O)C3CC3)C2=O)c1 [Compound 17-i] | 44 | 
> 10 | 0.105 | 0.005 | O=C(Nc1cccc(C(=O)O)c1)NC1C(=O)N(CC(=O)C2CC2)c2ccccc2N(CC(=O)C2CC2)C1=O [Compound 17-ii] | 72 | 
11.5 | 0.19 | 0.006 | CC(C)S(=O)(=O)NC(=O)c1cccc(NC(=O)NC2C(=O)N(CC(=O)C3CC3)c3ccccc3N(CC(=O)C3CC3)C2=O)c1 [Compound 17-iii, 1,5-Bis-(cyclopropylcarbonylmethyl)-3-(N'-(m-(isopropylsulfonylaminocarbonyl)phenyl)ureido)-1H-1,5-benzodiazepine-2,4(3H,5H)-dione] | 47 | 
2.9 | 0.008 | 0.002 | O=C(Nc1cccc(-c2nnn[nH]2)c1)NC1C(=O)N(CC(=O)C2CC2)c2ccccc2N(CC(=O)C2CC2)C1=O [Compound 17-iv, 1,5-Bis-(cyclopropylcarbonylmethyl)-3-(N'-(m-(tetrazoyl)phenyl)ureido)-1H-1,5-benzodiazepine-2,4(3H,5H)-dione] |  | 44
0.5 | 0.002 | 0.0006 | O=C(O)CSc1cccc(NC(=O)NC2C(=O)N(CC(=O)C3CC3)c3ccccc3N(CC(=O)C3CC3)C2=O)c1 [Compound 17-ix, 1,5-Bis-(cyclopropylcarbonylmethyl)-3-(N'-(m-(carboxymethylthio)phenyl)ureido)-1H-l,5-benzodiazepine-2,4(3H,5H)-dione] |  | 74
3.6 | 0.18 | 0.016 | CCOC(=O)COc1cccc(NC(=O)NC2C(=O)N(CC(=O)C3CC3)c3ccccc3N(CC(=O)C3CC3)C2=O)c1 [Compound 17-v, 1,5-Bis-(cyclopropylcarbonylmethyl)-3-(N'-(m-(carboethoxymethoxy)phenyl)ureido)-1H-1,5-benzodiazepine-2,4(3H,5H)-dione] | 59 | 
4.4 | 0.016 | 0.003 | O=C(O)COc1cccc(NC(=O)NC2C(=O)N(CC(=O)C3CC3)c3ccccc3N(CC(=O)C3CC3)C2=O)c1 [Compound 17-vi, 1,5-Bis-(cyclopropylcarbonylmethyl)-3-(N'-(m-(carboxymethoxy)phenyl)ureido)-1H-1,5-benzodiazepine-2,4(3H,5H)-dione] | 22 | 
1.8 | 0.004 | 0.011 | O=C(Nc1cccc(OCc2nnn[nH]2)c1)NC1C(=O)N(CC(=O)C2CC2)c2ccccc2N(CC(=O)C2CC2)C1=O [Compound 17-vii, 1,5-Bis-(cyclopropylcarbonylmethyl)-3-(N'-(m-(tetrazoylmethoxy)phenyl)ureido)-1H-1,5-benzodiazepine-2,4(3H,5H)-dione] | 68 | 
